Assay results: ChEMBL document CHEMBL2434900, “Synthesis of novel benzo[4,5]thiazolo[1,2-a]pyrimidine-3-carboxylate derivatives and biological evaluation as potential anticancer agents” (Eur J Med Chem, 2013)

Tests used:
Type in all cases: functional, cell-based
A549 = assay: Cytotoxicity against human A549 cells by MTT assay
MCF7 = assay: Cytotoxicity against human MCF7 cells by MTT assay
HeLa = assay: Cytotoxicity against human HeLa cells by MTT assay
MDA-MB-231 = assay: Cytotoxicity against human MDA-MB-231 cells by MTT assay

| SMILES | IC50 (A549) [µM] | IC50 (MCF7) [µM] | IC50 (HeLa) [µM] | IC50 (MDA-MB-231) [µM] |
| --- | --- | --- | --- | --- |
| CC1=C(C(=O)NCCC(=O)N2CCN(c3ccc([N+](=O)[O-])cc3)CC2)C(c2ccccc2)N2C(=N1)Sc1ccccc12 (centres undefined) | 11.2 | 13.8 | 25.7 |  |
| CC1=C(C(=O)N2CCCCC2)C(c2ccccc2)N2C(=N1)Sc1ccccc12 (centres undefined) |  | 11.7 |  | 5.01 |
| CC1=C(C(=O)N2CCN(C)CC2)C(c2ccccc2)N2C(=N1)Sc1ccccc12 (centres undefined) |  | 0.58 |  | 1.58 |
| CC1=C(C(=O)N2CCOCC2)C(c2ccccc2)N2C(=N1)Sc1ccccc12 (centres undefined) |  | 10.1 |  | 11.1 |
| CC1=C(C(=O)N2CCN(c3ccccc3)CC2)C(c2ccccc2)N2C(=N1)Sc1ccccc12 (centres undefined) |  | 77.6 |  | 31.6 |
| CC1=C(C(=O)N2CCN(c3ccc([N+](=O)[O-])cc3)CC2)C(c2ccccc2)N2C(=N1)Sc1ccccc12 (centres undefined) |  | 29 |  | 47.2 |
| CC1=C(C(=O)NCCC(=O)N2CCCCC2)C(c2ccccc2)N2C(=N1)Sc1ccccc12 (centres undefined) | 18.1 | 16.8 | 11.4 | 21.7 |
| COc1cccc2c1C(=O)c1c(O)c3c(c(O)c1C2=O)C[C@@](O)(C(=O)CO)C[C@@H]3O[C@H]1C[C@H](N)[C@H](O)[C@H](C)O1 [DOXORUBICIN] |  | 1.05 |  | 0.501 |
